For one series, the system named is Du145. Nature of the series: Test A: Cytostatic cell culture assay (CC50), SRB, solid tumor cell lines. The series is classed as cell-based. The note with it: Homo sapiens, DU-145, 120 h, read-out: CC50 Prostate Du145. Here is the method: (§1) Gemcitabine is obtained from Moravek Biochemicals (Brea, Calif.)
(§2) • 1. […] Fix one plate of each cell line with TCA. […] Discard TCA from the plates by flicking them gently. […] Store the plates at room temperature. These plates represent cell counts on day zero. • 4. […] Add 50 μL of the diluted compounds per well. […] Fix the plates with TCA. […] Discard TCA from the plates by flicking them gently. […] Leave at room temperature for 30 minutes. • 9. Flick the plates gently to discard SRB.

A further series deals with HCT116. The description is as above. The series is classed as cell-based. The conditions noted are these: Homo sapiens, HCT-116, 120 h, read-out: CC50 Colon HCT116. Here is the method: as §1, §2
In a further series the test system is HS578. The series is described as above. The series is classed as cell-based. The note with it: Homo sapiens, Hs578, 120 h, read-out: CC50 Breast HS578. Here is the method:
as §1, §2

In a further series the test system is NCI H23. The series is described as above. The series is classed as cell-based. The note with it: Homo sapiens, NCI-H23, 120 h, read-out: CC50 Lung NCI H23. The procedure:
as §1, §2

For another series, the system named is human tumor cell lines. Nature of the series: Tests A and B, all tumor cell lines together. The series is classed as cell-based. The conditions noted are these: read-out: CC50 Geometric mean all. Here is the method: as §2
Plates were incubated for 5 days with tested compounds.

Series [1] relates to MT-4 T-lymphoid cell line. Kind of series: Test B: Cytostatic cell culture assay (CC50), CellTiter Glo, lymphoid tumor cell lines. The note with it: Homo sapiens, MT4, 120 h, read-out: CC50 T-lymphoid MT-4. Background: In ATP-based viability assays light output follows the ATP content of the culture.
Protocol: Test B: Cytostatic Cell Culture Assay (CC50) for Lymphoid Tumor Cell Lines
This test is typically performed with cell lines that are derived from hematological tumors and grow in suspension. An example of such cell line is human MT-4 T-lymphoid cell line used for the determination of cytostatic activity of tested compounds. […] Cells were passaged in suspension twice a week and maintained at densities below 500,000 cells/mL. For CC50 determination, cells were seeded into 384-well plates at 2,000 cells/well in 20 μL of culture medium. Compounds were serially diluted in culture medium and added in triplicate to a final assay volume of 40 μL/well. Plates were incubated for 5 days with tested compounds. At the end of incubation, cell viability was determined by addition of 40 μL of CellTiter Glo reagent followed by a luminescence read-out.
Data analysis and CC50 value calculations were done using GraphPad Prism software (GraphPad Software, San Diego, Calif.) by applying nonlinear regression.
The test system of another series is A549. Nature of the series: Test A: Cytostatic cell culture assay (CC50), SRB, solid tumor cell lines. The note with it: Homo sapiens, A549, 120 h, read-out: CC50 Lung A549. An excerpt:
Test A: Cytostatic Cell Culture Assay (CC50) for Solid Tumor Cell Lines
This assay is based on quantification of cell mass determination by a colorimetric detection of the cell associated proteins. The assay relies on the ability of sulforhodamine B (SRB) to bind to protein components of cells that have been fixed to tissue-culture plates by trichloroacetic acid (TCA). SRB is a bright-pink aminoxanthene dye with two sulfonic groups that bind to basic amino-acid residues under mild acidic conditions, and dissociate under basic conditions. As the binding of SRB is stochiometric, the amount of dye extracted from stained cells is directly proportional to the cell mass.
Cell lines: All cell lines are obtained from ATCC (Manassas, Va.). Cultivation media containing Glutamax, and trypsin are purchased from Invitrogen (Carlsbad, Calif.). Doxorubicin, Tubercidin, Clofarabine, TCA and SRB are from Sigma-Aldrich (St. Louis, Mo.). Gemcitabine is obtained from Moravek Biochemicals (Brea, Calif.)
• 1. Trypsinize the sub-confluent cells, count them, and adjust the cell concentrations according to the cell counts listed in Table 1. • 2. Distribute the cells into the 96-well plates in 150 μL of media. Incubate the plates overnight in humidified CO2 incubator at 37° C. • 3. Fix one plate of each cell line with TCA. Discard the cultivation media from the plates by flicking them gently and add 100 μL cold 10% (vol/vol) TCA to each well. Incubate the plates at 4 degree refrigerator for 1 hour. Discard TCA from the plates by flicking them gently. Rinse plates four times in a washing basin containing tap water. Store the plates at room temperature. These plates represent cell counts on day zero. • 4. Prepare a set of medium solutions containing various concentrations of tested compounds by making 5-fold serial dilutions in 96-well plate. Add 50 μL of the diluted compounds per well. Include controls with untreated cells and cells treated with doxorubicin, tubercidin, clofarabine and/or gemcitabine. • 5. Incubate the plates for 5 days at 37° C. • 6. Fix the plates with TCA. Discard the cultivation media from the plates by flicking them gently and add 100 μL cold 10% (vol/vol) TCA to each well. Incubate the plates at 4 degree refrigerator for 1 hour. Discard TCA from the plates by flicking them gently. Rinse plates four times in a washing basin containing tap water. • 7. Remove excess water by tapping the plates face down, gently on a paper towel. Allow the plates to air-dry at room temperature. • 8. Add 100 μL of 0.057% SRB solution in 1% (vol/vol) acetic acid to each well of the plates fixed with TCA on day zero and five. Leave at room temperature for 30 minutes. • 9. Flick the plates gently to discard SRB. Rinse the plates four times with 1% (vol/vol) Acetic Acid. • 10. Store the plates at 37° incubator to facilitate faster drying. • 11. Once the plates are completely dry, add 200 μL of 10 mM Tris base solution (pH 10.5) to each well. Leave at room temperature for 30 minutes for SRB to solubilize. • 12. Measure the OD at 500 nm in a microplate reader. • 13. Calculate the percentage of cell-growth inhibition using the next formula: % of control cell growth=100×(ODsample−mean ODday0)/(ODneg control−mean ODday0). For CC50 determination, plot a dose-response curves between the compound concentration and percent of growth inhibition. CC50 values can be derived by fitting dose-response curves using sigmoidal dose response equation.

A further series deals with BT549. Described as above. The series is classed as cell-based. The conditions noted are these: Homo sapiens, BT-549, 120 h, read-out: CC50 Breast BT549. Here is the method: as §1, §2
The next series relates to PC3. The description is as above. The series is classed as cell-based. The conditions noted are these: Homo sapiens, PC-3, 120 h, read-out: CC50 Prostate PC3. Here is the method:
as §1, §2

[2] abbreviates: BT549 breast tumor cells, 5 days, SRB.

Read-outs that look alike come from different tables or passages of the source.

Turning to `CSc1ccc(-c2cn([C@@H]3O[C@H](CO)[C@@H](O)[C@H]3O)c3ncnc(N)c23)cc1` [Compound 2c, 4-Amino-5-[4-(methylthio)phenyl]-7-(β-D-ribofuranosyl)-7H-pyrrolo[2,3-d]pyrimidine], the CC50 with Du145 came out at 1870 nM; with HCT116, 1290 nM; in the series with HS578, 1970 nM; in the series with NCI H23, 390 nM; with human tumor cell lines, 1520 nM; in [1], 4400 nM.

For the compound `Nc1ncnc2c1c(-c1cccc3ccccc13)cn2[C@@H]1O[C@H](CO)C(O)C1O` (stereo partly drawn) [Compound 2d, 4-Amino-5-(naphtalen-1-yl)-7-(β-D-ribofuranosyl)-7H-pyrrolo[2,3-d]pyrimidine], the CC50 in the series with Du145, with HCT116, in the series with HS578, in the series on NCI H23 and with human tumor cell lines was > 10000 nM in each case.

For the compound `Nc1ncnc2c1c(-c1ccc3ccccc3c1)cn2[C@@H]1O[C@H](CO)C(O)C1O` (stereo partly drawn) [Compound 2e, 4-Amino-5-(naphtalen-2-yl)-7-(β-D-ribofuranosyl)-7H-pyrrolo[2,3-d]pyrimidine], the CC50 in the series with Du145 was 1050 nM; with HCT116, 5670 nM; in the series with HS578, 2160 nM; in the series with NCI H23 it was 5350 nM; in the series on human tumor cell lines, 2880 nM.

Regarding `Nc1ncnc2c1c(-c1ccoc1)cn2[C@@H]1O[C@H](CO)[C@@H](O)[C@H]1O` [Compound 2h, 4-Amino-5-(furan-3-yl)-7-(β-D-ribofuranosyl)-7H-pyrrolo[2,3-d]pyrimidine], the CC50 with A549 is 34 nM; in the series on BT549 (setting [2]), 28 nM; in the series on Du145 it was 330 nM; with HCT116, 15 nM; with HS578, 21 nM; in the series on NCI H23, 198 nM. The CC50 in the series on PC3 was 418 nM; in the series with human tumor cell lines it was 78.1 nM; in [1] it was 170 nM.

Regarding `Nc1ncnc2c1c(-c1ccsc1)cn2[C@@H]1O[C@H](CO)[C@@H](O)[C@H]1O` [Compound 2i, 4-Amino-7-(β-D-ribofuranosyl)-5-(thiophen-3-yl)-7H-pyrrolo[2,3-d]pyrimidine], the CC50 with A549 was found to be 16 nM; in the series on BT549 (setting [2]) it was 28 nM; in the series on Du145 it was 97 nM; in the series on HCT116, 7 nM; in the series on HS578, 50 nM; in the series with NCI H23, 73 nM. The CC50 in the series on PC3 was 1320 nM; in the series on human tumor cell lines, 60.7 nM; in [1], 124 nM.

For `Nc1ncnc2c1c(-c1cc3ccccc3o1)cn2[C@@H]1O[C@H](CO)[C@@H](O)[C@H]1O` [Compound 2j, 4-Amino-5-(benzofuran-2-yl)-7-(β-D-ribofuranosyl)-7H-pyrrolo[2,3-d]pyrimidine], the CC50 is 7020 nM in the series with A549; > 10000 nM in the series with BT549; 3740 nM in the series on HCT116; 6730 nM with HS578; 5400 nM with NCI H23; 6290 nM in the series with PC3. Moreover, the half-maximal cytotoxic concentration (CC50) with human tumor cell lines turned out to be 5540 nM; in series [1] it was 4800 nM.

Consider `Nc1ncnc2c1c(-c1cc[nH]c1)cn2[C@@H]1O[C@H](CO)[C@@H](O)[C@H]1O` [Compound 2l, 4-Amino-5-(1H-pyrrol-3-yl)-7-(β-D-ribofuranosyl)-7H-pyrrolo[2,3-d]pyrimidine], for which the half-maximal cytotoxic concentration (CC50) was determined as 5.3 nM with A549; 8 nM in the series with BT549 (setting [2]); 5.9 nM in the series with HCT116; 4.4 nM in the series on HS578; 33 nM with NCI H23; 29 nM in the series on PC3. Also, the CC50 with human tumor cell lines stood at 11.4 nM; in [1], 24 nM.

On to `Nc1ncnc2c1c(-c1cn[nH]c1)cn2[C@@H]1O[C@H](CO)[C@@H](O)[C@H]1O` [Compound 2m, 4-Amino-5-(1H-pyrazol-4-yl)-7-(β-D-ribofuranosyl)-7H-pyrrolo[2,3-d]pyrimidine], for which the cytotoxic concentration (CC50) was 192 nM with A549; 50 nM in the series with BT549 (setting [2]); 970 nM with HCT116; 12 nM in the series on HS578; 144 nM in the series on NCI H23; 14 nM in the series on PC3. Moreover, the CC50 is 81.9 nM with human tumor cell lines and 110 nM in [1].

`C#Cc1cn([C@@H]2O[C@H](CO)[C@@H](O)[C@H]2O)c2ncnc(N)c12` [Compound 2o, 4-Amino-5-ethynyl-7-(β-D-ribofuranosyl)-7H-pyrrolo[2,3-d]pyrimidine]: the CC50 with HCT116 turned out to be 2 nM; with HS578 it was 1 nM; with NCI H23 it was 1 nM; with PC3, 11 nM; in the series on human tumor cell lines, 1.9 nM; in [1], 1 nM.

For the compound `Nc1ncnc2c1c(-c1nccs1)cn2[C@@H]1O[C@H](CO)[C@@H](O)[C@H]1O` [Compound 2q, 4-Amino-7-(β-D-ribofuranosyl)-5-(thiazol-2-yl)-7H-pyrrolo[2,3-d]pyrimidine], the CC50 with HCT116 was 93 nM; with HS578 it was 15 nM; with NCI H23, 5 nM; in the series with PC3 it was 42 nM; with human tumor cell lines, 25.6 nM; in [1], 42 nM.

`Nc1ncnc2c1c(-c1c[nH]cn1)cn2[C@@H]1O[C@H](CO)[C@@H](O)[C@H]1O` [Compound 2r, 4-Amino-5-(1H-imidazol-4-yl)-7-(β-D-ribofuranosyl)-7H-pyrrolo[2,3-d]pyrimidine]: the CC50 in the series on HCT116 was 3 nM; with HS578 it was 2 nM; in the series on NCI H23, 2 nM; in the series on PC3, 2 nM; with human tumor cell lines, 3.8 nM; in series [1], 28 nM.

`C[C@@]1(O)[C@H](O)[C@@H](CO)O[C@H]1n1cc(-c2ccccc2)c2c(N)ncnc21` [Compound 7a, 4-Amino-7-(2-C-methyl-β-D-ribofuranosyl)-5-phenyl-7H-pyrrolo[2,3-d]pyrimidine] came in with a melting point of 129 °C.

Compound `COc1ccc(-c2cn([C@@H]3O[C@H](CO)[C@@H](O)[C@@]3(C)O)c3ncnc(N)c23)cc1` [Compound 7b, 4-Amino-5-(4-methoxyphenyl)-7-(2-C-methyl-β-D-ribofuranosyl)-7H-pyrrolo[2,3-d]pyrimidine] had a melting point of 127 °C.

`COc1cccc2c1C(=O)c1c(O)c3c(c(O)c1C2=O)C[C@@](O)(C(=O)CO)C[C@@H]3O[C@H]1C[C@H](N)[C@H](O)[C@H](C)O1` [Doxorubicine, reference compound]: the CC50 came out at 16 nM in the series on A549; 10 nM in the series with BT549 (setting [2]); 11 nM in the series on HCT116; 6 nM in the series with HS578; 5 nM in the series on NCI H23; 21 nM in the series with PC3. Further, the CC50 with human tumor cell lines was determined as 10.1 nM.

As a reminder, the CC50 is the concentration at which the toxic effect on the cells reaches its halfway point. For orientation: melting point means the temperature of the solid-liquid transition.

The values above are taken from US10294262B2, “7-deazapurine nucleosides for therapeutic uses” (Institute of Organic Chemistry and Biochemistry ASCR, V.V.I., priority 2009, dated 2019).
